Legend:
[1] = test system: muscular dystrophy caused by FKRP mutations; experiment: Ribitol/ribose supplementation in animal model of FKRP mutation muscular dystrophy; assay type: in vivo; conditions: supplement via drinking water
C2C12 myotubes = experiment: LC/MS-MS of isotopically labeled metabolites in differentiated C2C12 myotubes; assay type: cell-based, mouse; conditions: 5 mM, 5 days

| Compound | Disease pathology of muscular dystrophy caused by FKRP mutations [1] | Levels of 13C-ribitol-5P and CDP-13C-ribitol in cells (C2C12 myotubes) |
| --- | --- | --- |
| O=C[C@H](O)[C@H](O)[C@H](O)CO [ribose] | diminish disease pathology |  |
| ^13C5-ribitol [^13C-ribitol] |  | clearly elevated levels |

From patent US20200061092A1, “METHODS AND COMPOSITIONS FOR TREATING DISORDERS ASSOCIATED WITH MUSCLE WEAKNESS” (priority 2018, published 2020)
